EC50, IC50 and outcome data for 73 molecules are collected here from PubChem BioAssay AID179 (DTP/NCI, 2004).

The EC50 is the concentration needed to bring the measured effect to its halfway point. A word on the IC50: it is the midpoint of a concentration-inhibition curve. The low end stands for inhibition by little substance, the high end for a need for much substance.

Each structure is given as a SMILES string. Activity calls are given as the source filed them.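 Rule for the calls: active = compounds giving half or more protection of infected cells from virus-caused growth loss, again on retest; inactive = the rest.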

The test relates to CEM cells HIV-1 protection, formazan growth assay. In words: NCI AIDS Antiviral Assay. The note with it: for IC50: measured here: growth of uninfected CEM cells. The gist of the method:
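Human CEM cells, uninfected and HIV-1-infected, exposed to five drug concentrations; growth measured by soluble formazan assay and scored as percent protection from infection, with protecting compounds retested.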

Take `CCOC(=O)c1c2c(nc3c1CCCC3)CCCC2`: the EC50 was greater than 200 µM and the IC50 came out at 64.6 µM.

Consider `Cc1cc2c(c(C=Nc3ccccc3O)c1)OC1(C=C2)Oc2ccccc2C(=O)N1C` (stereo unspecified), for which the EC50 is greater than 200 µM and the IC50 was determined as 25.1 µM.

With `COc1ccc(Nc2ccc3ccccc3c2-c2c(O)ccc3ccccc23)cc1`, the EC50 was greater than 200 µM and the half-inhibitory concentration (IC50) was 10.5 µM.

Consider `CCOC(=O)[C@H]1Nc2ccc(C)cc2C2c3ccccc3CC21` (stereo partly specified), for which the EC50 was greater than 17 µM and the IC50 was greater than 17 µM.

As for `Nc1ccc(C(=O)N/C(=C\C=C\c2ccco2)c2nc3c4c(ccc3[nH]2)C(=O)c2ccccc2C4=O)cc1`, the outcome was inactive.

Regarding `O=C(O)c1cc(=O)c2cccc(O)c2[nH]1`, the EC50 is greater than 200 µM and the half-inhibitory concentration (IC50) was greater than 200 µM.

For the molecule `CC1=C[C@H]2O[C@@H]3C[C@H]4OC(=O)/C=C\C=C\[C@H]([C@@H](C)O)OC[C@H](O)[C@@]5(C)O[C@@H]5C(=O)OC[C@@]2(C[C@H]1O)[C@]4(C)C31CO1` (stereo partly specified), the EC50 is greater than 4.47 µM and the IC50 came out at 0.00575 µM.

For `Cc1c(C)n(-c2ccccc2)c2nc(S(C)(=O)=O)nc(S(C)(=O)=O)c12`, the EC50 was greater than 200 µM and the concentration for half-maximal inhibition (IC50) was 0.288 µM.

Turning to `Cc1c(CC/C(=N\Nc2ccc([N+](=O)[O-])cc2[N+](=O)[O-])c2ccccc2)c2ccccc2n1C`, the outcome was inactive.

As to `CC(C)(C)C(=O)/C=C/c1ccc(C#N)cc1`, the outcome was inactive and the 50% inhibitory concentration (IC50) is 38.9 µM.

Consider `CC(=S)N/C=C\c1nc2ccccc2[nH]c1=O`, for which the result was inactive.

For the molecule `O=C1c2ccccc2C(=O)N1C/C=N/NS(=O)(=O)c1cccc([N+](=O)[O-])c1`, the EC50 is greater than 646 µM and the IC50 is greater than 646 µM.

With `CCCCCCCCCCCCCC1CCC(CC)N1` (stereo unspecified), the EC50 was greater than 331 µM and the IC50 is greater than 331 µM.

Take `CC1C(N2CCCCC2)N(C(=O)c2ccccc2)SC12c1ccccc1-c1ccccc12` (stereo unspecified): the EC50 is greater than 42.7 µM and the half-maximal inhibitory concentration (IC50) was greater than 42.7 µM.

In the case of `N#Cc1cccc2c1Nc1ccccc1S2`, the EC50 is greater than 23.4 µM and the IC50 is greater than 23.4 µM.

Turning to `O=C(OCc1ccccc1)N1CCNCCNCC1`, the EC50 was greater than 200 µM and the IC50 was greater than 200 µM.

On to `NC(N)=NS(=O)(=O)c1ccc(NCc2cccc3c(=O)c4ccc(Cl)cc4oc23)cc1`, for which the EC50 was greater than 25.1 µM and the half-inhibitory concentration (IC50) was 2.19 µM.

With `COC1OC2C(CO)OC(n3ncc4c3ncn3cnnc43)C2O1` (stereo unspecified), the EC50 is greater than 234 µM and the half-maximal inhibitory concentration (IC50) is greater than 234 µM.

As for `CNc1cc(Cl)ccc1C(=O)N1CCC[C@H]1CO`, the EC50 was greater than 200 µM and the IC50 amounted to 191 µM.

With `C=CCNC(=S)/N=C\C(C(=O)OCC)=C(/O)C(=O)OCC`, the EC50 was greater than 200 µM and the half-inhibitory concentration (IC50) is greater than 200 µM.

In the case of `COc1nccnc1NS(=O)(=O)c1ccc(N)cc1`, the EC50 was greater than 200 µM and the IC50 is greater than 200 µM.

Turning to `CC1(Cl)C(=O)NC(=O)N([C@H]2C[C@H](O)[C@@H](CO)O2)C1N=[N+]=[N-]` (stereo partly specified), the EC50 is greater than 200 µM and the concentration for half-maximal inhibition (IC50) is greater than 200 µM.

Turning to `Cc1cc(C)nc(NS(=O)(=O)c2ccc(Nc3c4ccccc4nc4ccc(C(=O)Nc5ccc(S(=O)(=O)N=C(N)N)cc5)cc34)cc2)n1`, the EC50 was greater than 93.3 µM and the 50% inhibitory concentration (IC50) stood at 47.9 µM.

As to `C=CCOC1=C(OC(C)=O)C(C2COC(C)(C)O2)OC1=O` (stereo unspecified), the EC50 is greater than 200 µM and the IC50 worked out at 16.2 µM.

`Cc1cc2c(C)nn(Cc3ccccc3)c2c(C(N)=O)c1C`: the outcome was inactive.

As for `CC(=O)N(C)C(c1ccccc1)(c1ccccc1)c1ccccc1`, the EC50 is greater than 200 µM and the 50% inhibitory concentration (IC50) was 35.5 µM.

As for `COC(=O)N1CC2CCCC(C2)c2ccccc21` (stereo unspecified), the EC50 is greater than 204 µM and the IC50 amounted to 186 µM.

In the case of `CCCCCCCCCCCC(=O)c1c(O)c2ccccc2oc1=O`, the EC50 was greater than 200 µM and the concentration for half-maximal inhibition (IC50) is 155 µM.

With `CCOC(=O)Nc1cc(NC(C)/C(=N/O)c2ccccc2)c([N+](=O)[O-])c(N)n1` (stereo unspecified), the result was inactive.

On to `COc1cc(C(O)C(=O)c2nc3ccc([N+](=O)[O-])cc3[nH]c2=O)ccc1O` (stereo unspecified), for which the EC50 was greater than 251 µM and the IC50 was greater than 251 µM.

As for `CCCn1c(SCC)c2ccccc2c1-c1nc(F)nc(F)n1`, the EC50 is greater than 8.13 µM and the IC50 was greater than 8.13 µM.

As for `CN(C)CCCOC(=O)C1C[C@@H](O)CN1C(=O)c1ccc2c(c1)OCO2` (stereo partly specified), the EC50 is greater than 200 µM and the concentration for half-maximal inhibition (IC50) is greater than 200 µM.

For the molecule `CC1(C)CCc2ccc(OCCC#N)cc2O1`, the outcome was inactive.

`O=S1(=O)CCCS(=O)(=O)C1CC1S(=O)(=O)CCCS1(=O)=O`: the EC50 is greater than 245 µM and the IC50 was greater than 245 µM.

For `N[C@H](CCOc1ccc(/C(=N/O)C(=O)N[C@H]2CN([C@@H](C(=O)O)c3ccc(O)cc3)C2=O)cc1)C(=O)O`, the EC50 was greater than 200 µM and the half-inhibitory concentration (IC50) was greater than 200 µM.

As to `NNC(=O)CCc1c[nH]c2ccccc12`, the EC50 was greater than 1230 µM and the IC50 amounted to 661 µM.

As for `N#CCN(Cc1ccccc1)[C@@H]1CCC[C@]1(O)C#Cc1ccc2c(c1)OCO2`, the EC50 was greater than 200 µM and the 50% inhibitory concentration (IC50) is 20.4 µM.

In the case of `Cc1cccc(N(CC(=O)O)S(=O)(=O)c2ccccc2)c1`, the outcome was inactive.

With `CC(C)C1CNC2N1C(=O)C2(C)OCc1ccccc1` (stereo unspecified), the EC50 was greater than 251 µM and the IC50 came to 155 µM.

On to `CCOC(=O)c1ccc(CSc2ccc(Cl)cc2)c([N+](=O)[O-])c1`, for which the EC50 is greater than 102 µM and the IC50 was greater than 102 µM.

As for `[Cu+2].[Cu+2].[Cu+2].[Cu+2].[O-]CCN(CC[OH2+])CC[OH2+].[O-]CCN(CC[OH2+])CC[OH2+].[O-]CCN(CC[OH2+])CC[OH2+].[O-]CCN(CC[OH2+])CC[OH2+]`, the EC50 was greater than 200 µM and the IC50 was found to be 4.79 µM.

With `CCc1cccc(C)c1NC(=O)CCc1nnc(SC)o1`, the EC50 is greater than 162 µM and the IC50 is greater than 162 µM.

Regarding `CC(C)N1CN(c2ccccc2)C2(CCN(CCCC(=O)c3ccc(F)cc3)CC2)C1=O`, the EC50 was greater than 200 µM and the IC50 is 5.75 µM.

With `CC(=O)Nc1ccc(-c2nnc(SCC(=O)Nc3ccccc3Cl)o2)cc1`, the EC50 is greater than 46.8 µM and the IC50 was greater than 46.8 µM.

For the molecule `Nc1nc(N)c(-c2ccccc2)c(C(=O)Nc2nccs2)n1`, the EC50 is greater than 22.9 µM and the IC50 was greater than 22.9 µM.

For `Cc1nc(N)c(N2CCN(S(N)(=O)=O)CC2)c(=O)[nH]1`, the EC50 is greater than 200 µM and the IC50 is greater than 200 µM.

On to `O=S(=O)(O)CC(O)CNC(CO)(CO)CO` (stereo unspecified), for which the EC50 is greater than 200 µM and the IC50 is greater than 200 µM.

For the molecule `O=C1CCC(N2C(=O)C3C4c5ccccc5C(c5ccccc54)C3C2=O)C(=O)N1` (stereo unspecified), the EC50 was greater than 200 µM and the IC50 was greater than 200 µM.

In the case of `O=CN/C=C/c1cc(O)ccc1O`, the EC50 is greater than 79.4 µM and the IC50 is 4.57 µM.

For the molecule `COc1ccc(C2=Nc3ccccc3SC(c3ccc(OC)cc3)C2)cc1` (stereo unspecified), the EC50 is greater than 47.9 µM and the 50% inhibitory concentration (IC50) worked out at 25.7 µM.

`O=C1NC(=O)C(CCC(=O)c2ccc3ccccc3c2)C(=O)N1`: the EC50 was greater than 110 µM and the IC50 was greater than 110 µM.

Turning to `O=S(=O)(O)C(O)C(O)S(=O)(=O)O` (stereo unspecified), the EC50 is greater than 200 µM and the half-inhibitory concentration (IC50) was found to be 79.4 µM.

As for `O=Cc1cccc(/C=N/Nc2nnc(N/N=C/c3cccc(C=O)c3)c3ccccc23)c1`, the EC50 was greater than 200 µM and the half-inhibitory concentration (IC50) was 28.8 µM.

`O=c1c2ccccc2c(=O)c2cc3c(=O)n(-c4ccccc4)c(=O)c3cc12`: the result was inactive.

Turning to `Cn1c(=O)oc2cc(C(O)CN3CCN(Cc4ccccn4)CC3)c(Cl)cc21` (stereo unspecified), the EC50 is greater than 200 µM and the half-inhibitory concentration (IC50) turned out to be 195 µM.

Take `Cc1sc2nc3n(c(=O)c2c1C)N=C(c1ccc(Cl)cc1)CS3`: the EC50 was greater than 200 µM and the IC50 was greater than 200 µM.

For `Cc1c(N=Nc2ccc(N(C)C)cc2)cc[n+]([O-])c1C`, the EC50 was greater than 200 µM and the 50% inhibitory concentration (IC50) is greater than 200 µM.

In the case of `Cc1nnc2n1N=C(CC(=O)c1ccc(O)cc1O)CN2N`, the EC50 was greater than 832 µM and the IC50 is greater than 832 µM.

In the case of `Cc1nc(C(=O)O)c2ccccc2n1`, the outcome was inactive.

Take `O=C(NNC(=O)c1ccncc1)C(=O)Nc1cc(Cl)c(Cl)cc1Cl`: the EC50 was greater than 18.6 µM and the IC50 is greater than 18.6 µM.

With `O=c1oc2ccccc2c2nc3ccc(Cl)cc3cc12`, the EC50 was greater than 200 µM and the half-inhibitory concentration (IC50) was determined as 5.13 µM.

Turning to `CCCCCCCCCCCCCCCCOC1OC(CO)C(O)C(O)C1O` (stereo unspecified), the EC50 was greater than 9.33 µM and the IC50 was greater than 9.33 µM.

As for `O=C(Nn1c(-c2ccccc2)nc2ccccc2c1=O)c1ccccc1O`, the EC50 is greater than 200 µM and the IC50 is 17.4 µM.

Consider `O=C(O)C1Cc2c([nH]c3ccccc23)C=N1` (stereo unspecified), for which the outcome was inactive.

For the molecule `CS(=O)(=O)C(C#N)c1nc2ccccc2nc1Cl` (stereo unspecified), the EC50 is greater than 200 µM and the 50% inhibitory concentration (IC50) is greater than 200 µM.

For the molecule `N#Cc1ccc(C(C2C(=O)NC(=O)NC2=O)C2C(=O)NC(=O)NC2=O)cc1`, the EC50 was greater than 70.8 µM and the IC50 is greater than 70.8 µM.

With `CCOC(=O)C(NC(=O)CC)(Nc1ccc(S(=O)(=O)Nc2nc(C)cc(C)n2)cc1)C(F)(F)F` (stereo unspecified), the EC50 was greater than 200 µM and the concentration for half-maximal inhibition (IC50) was greater than 200 µM.

As for `CCOC(=O)c1cn2c3c(cccc3c1=O)CC2`, the EC50 is greater than 132 µM and the half-maximal inhibitory concentration (IC50) was greater than 132 µM.

Consider `COc1ccc(NC(=S)Nc2c(C)n(C)n(-c3ccccc3)c2=O)cc1`, for which the EC50 was greater than 200 µM and the concentration for half-maximal inhibition (IC50) was greater than 200 µM.

For the molecule `NC(N)=NC(N)=Nc1cccc(S(=O)(=O)c2cccc(N=C(N)N=C(N)N)c2)c1`, the EC50 is 126 µM and the IC50 is greater than 200 µM.

In the case of `Fc1ccc2c(c1)SC1Oc3ccccc3-c3c1c-2nn3-c1ccccc1` (stereo unspecified), the EC50 is greater than 19.5 µM and the 50% inhibitory concentration (IC50) was greater than 19.5 µM.

`COc1ccc(NC2Oc3cc4c(cc3C(c3cccc(OC)c3OC)C2C)OCO4)cc1` (stereo unspecified): the EC50 was greater than 200 µM and the concentration for half-maximal inhibition (IC50) is 1.95 µM.

Turning to `CC(=O)Oc1c(Br)cc(-c2oc(-c3cc(Br)c(OC(C)=O)c(Br)c3)c3ccccc23)cc1Br`, the EC50 was greater than 100 µM and the IC50 was 38.9 µM.
